Assay results published in PMC12299463, “Cladolosides of Groups S and T: Triterpene Glycosides from the Sea Cucumber Cladolabes schmeltzii with Unique Sulfation; Human Breast Cancer Cytotoxicity and QSAR” (Marine Drugs, 2025).
Like-named read-outs stand apart in the source and are kept apart here.

Tests used:
human erythrocytes = assay: Hemolytic activity against human erythrocytes; assay type: cell-based; settings: for ED50, Erythrocytes (hemolytic activity): 1 h at 37 °C
Experimental: A total of 450 g of human blood (B(III) Rh+) was used to obtain erythrocytes by centrifuging three times for 5 min with phosphate-buffered saline (PBS) (pH 7.4) at 4 °C on a centrifuge LABOFUGE 400R (Heraeus, Hanau, Germany). Ice-cold PBS (pH 7.4) was used for resuspension of erythrocyte residue to a final optical density of 1.5 at 700 nm. Then, 20 µL of tested compound solutions or control (cucumarioside A0-1 [15]) were added to 180 µL of erythrocyte suspension in V-bottom 96-well plates and incubated for 1 h at 37 °C. After centrifugation (900 g, 10 min, laboratory centrifuge LMC-3000 (Biosan, Riga, Latvia)), 100 µL of supernatant was transferred into new flat plates. The values of erythrocyte lysis were measured on microplate photometer Multiskan FC (Thermo Fisher Scientific, Waltham, MA, USA) at λ = 570 nm as hemoglobin concentration in supernatant. […] All the experiments were carried out in triple repetitions, p < 0.05.

[1] = tested on: MCF-10A non-tumor mammary epithelial cell line; assay: in vitro; assay type: cell-based, human
[2] = tested on: MCF-7 human breast cancer cells; assay: cells; assay type: cell-based; settings: for Selectivity Index (SI), MCF-7: ratio of IC50 for healthy (MCF-10A) and MCF-7 cells;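 as to all read-outs here: IC50 values, including those behind the selectivity ratio, derive from formazan absorbance at 570 nm, tested in triplicate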
[3] = tested on: T-47D human breast cancer cells; assay: cells; assay type: cell-based; settings: for Selectivity Index (SI), T-47D: ratio of IC50 for healthy (MCF-10A) and T-47D cells;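 as to all read-outs here: cell viability read as absorbance of formazan dye at 570 nm, each experiment run in triplicate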
[4] = tested on: MDA-MB-231 triple-negative breast cancer cells; assay: cells; assay type: cell-based, human; settings: for Selectivity Index (SI), MDA-MB-231: ratio of IC50 for healthy (MCF-10A) and MDA-MB-231 cells
[5] = MTT assay, MCF-10A, read-out: Cytotoxicity, IC50, MCF-10A
[6] = MTT assay, MCF-7, read-out: Cytotoxicity, IC50, MCF-7
[7] = MTT assay, T-47D, read-out: Cytotoxicity, IC50, T-47D
[8] = MTT assay, MDA-MB-231, read-out: Cytotoxicity, IC50, MDA-MB-231

Row | Structure (SMILES) | ED50, Erythrocytes (hemolytic activity) (human erythrocytes) [µM] | Hemolytic (membranolytic) activity, in words (human erythrocytes) | IC50 [1, 5] [µM] | IC50 [2, 6] [µM] | IC50 [3, 7] [µM] | IC50 [4, 8] [µM] | other results
1 | CO[C@@H]1[C@@H](O)[C@H](O[C@@H]2[C@@H](O)[C@H](O[C@H]3[C@H](O)[C@@H](O)[C@H](O[C@H]4[C@H](O[C@H]5CC[C@]6(C)C7=CCC89C(=O)O[C@@](C)([C@@H](CCC(C)C)OC(C)=O)[C@H]8[C@@H](OC(C)=O)C[C@@]9(C)[C@@H]7CC[C@H]6C5(C)C)OC[C@@H](O)[C@@H]4O)O[C@@H]3C)OC[C@H]2O)O[C@H](CO)[C@H]1O (stereo partly shown) [A1 (5)] | 6.17 ± 0.51 | – | – | – | – | – | IC50 [1]: > 20 µM; IC50 [2]: > 20 µM; IC50 [3]: > 20 µM; IC50 [4]: > 20 µM
2 | C=C(C)CC[C@@H](OC(C)=O)[C@]1(C)OC(=O)C23CC=C4[C@@H](CC[C@H]5C(C)(C)[C@@H](O[C@@H]6OC[C@@H](O)[C@H](O)[C@H]6O[C@@H]6O[C@H](C)[C@@H](O[C@@H]7OC[C@@H](O)[C@H](O[C@@H]8O[C@H](CO)[C@@H](O)[C@H](OC)[C@H]8O)[C@H]7O)[C@H](O)[C@H]6O)CC[C@]45C)[C@]2(C)C[C@H](OC(C)=O)[C@@H]31 (stereo partly shown) [A2 (6), cladoloside A2] | 2.78 ± 0.32 | moderate activity | > 20 | > 20 | > 20 | > 20 | –
3 | C=C(C)CCC[C@]1(C)OC(=O)C23CC=C4[C@@H](CC[C@H]5C(C)(C)[C@@H](O[C@@H]6OC[C@@H](O)[C@H](O)[C@H]6O[C@@H]6O[C@H](C)[C@@H](O[C@@H]7OC[C@@H](O)[C@H](O[C@@H]8O[C@H](CO)[C@@H](O)[C@H](OC)[C@H]8O)[C@H]7O)[C@H](O)[C@H]6O)CC[C@]45C)[C@]2(C)C[C@H](OC(C)=O)[C@@H]31 (stereo partly shown) [A3 (7), cladoloside A3] | 7.58 ± 0.69 | low hemolytic activity | > 20 | > 20 | > 20 | > 20 | ED50, Erythrocytes (hemolytic activity) (human erythrocytes; listed as cladoloside A3 (7)): 7.58 µM
4 | CO[C@@H]1[C@@H](O)[C@H](O[C@@H]2[C@@H](O)[C@H](O[C@H]3[C@H](O)[C@@H](O)[C@H](O[C@H]4[C@H](O[C@H]5CC[C@]6(C)C7=CCC89C(=O)O[C@@](C)(CCC=C(C)C)[C@H]8C(=O)C[C@@]9(C)[C@@H]7CC[C@H]6C5(C)C)OC[C@@H](O)[C@@H]4O)O[C@@H]3C)OC[C@H]2O)O[C@H](CO)[C@H]1O (stereo partly shown) [A4 (8), cladoloside A4] | 13.60 ± 0.70 | weakest effect from the series | > 20 | > 20 | > 20 | > 20 | –
5 | COC1C(O)C(CO)OC(OC2C(O)COC(OC3C(C)OC(OC4C(OC5CCC6(C)C7=CCC89C(=O)OC(C)(CC=CC(C)(C)O)C8C(=O)CC9(C)C7CCC6C5(C)C)OCC(O)C4O)C(O)C3O)C2O)C1O (stereo not shown) [A5 (9), cladoloside A5] | 7.19 ± 0.53 | – | > 20 | > 20 | > 20 | > 20 | ED50, Erythrocytes (hemolytic activity) (human erythrocytes; listed as cladoloside A5 (9)): 7.19 µM
6 | C=C(C)CC[C@@H](OC(C)=O)[C@]1(C)OC(=O)C23CC=C4[C@@H](CC[C@H]5C(C)(C)[C@@H](O[C@@H]6OC[C@@H](O)[C@H](O)[C@H]6O[C@@H]6O[C@H](C)[C@@H](O[C@@H]7O[C@H](CO)[C@@H](O)[C@H](O[C@@H]8O[C@H](CO)[C@@H](O)[C@H](OC)[C@H]8O)[C@H]7O)[C@H](O)[C@H]6O)CC[C@]45C)[C@]2(C)C[C@H](OC(C)=O)[C@@H]31 (stereo partly shown) [A6 (10), cladoloside A6] | 3.43 ± 0.22 | – | > 20 | > 20 | > 20 | > 20 | –
7 | C=C(C)CC[C@@H](OC(C)=O)[C@]1(C)OC(=O)C23CC=C4[C@@H](CC[C@H]5C(C)(C)[C@@H](O[C@@H]6OC[C@@H](O[C@@H]7O[C@H](CO)[C@@H](O)[C@H](O[C@@H]8O[C@H](CO)[C@@H](O)[C@H](OC)[C@H]8O)[C@H]7O)[C@H](O)[C@H]6O[C@@H]6O[C@H](C)[C@@H](O[C@@H]7OC[C@@H](O)[C@H](O[C@@H]8O[C@H](CO)[C@@H](O)[C@H](OC)[C@H]8O)[C@H]7O)[C@H](O)[C@H]6O)CC[C@]45C)[C@]2(C)C[C@H](O)[C@@H]31 (stereo partly shown) [C3 (16), cladoloside C3] | 12.10 ± 0.58 | – | – | – | – | – | ED50, Erythrocytes (hemolytic activity) (human erythrocytes; listed as cladoloside C3 (16)): 12.10 µM; IC50 [1]: > 20 µM; IC50 [2]: > 20 µM; IC50 [3]: > 20 µM; IC50 [4]: > 20 µM
8 | CO[C@@H]1[C@@H](O)[C@H](O[C@@H]2[C@@H](O)[C@H](O[C@H]3[C@H](O)[C@@H](O)[C@H](O[C@H]4[C@H](O[C@H]5CC[C@]6(C)C7=CCC89C(=O)O[C@@](C)([C@@H](CCC(C)C)OC(C)=O)[C@H]8[C@@H](OC(C)=O)C[C@@]9(C)[C@@H]7CC[C@H]6C5(C)C)OC[C@@H](O[C@@H]5O[C@H](CO)[C@@H](O)[C@H](O)[C@H]5O)[C@@H]4O)O[C@@H]3C)OC[C@H]2O)O[C@H](CO)[C@H]1O (stereo partly shown) [Cladoloside B1 (11), cladoloside B1] | – | – | > 20 | > 20 | 13 ± 1.07 | 10.1 ± 1 | ED50, Erythrocytes (hemolytic activity) (human erythrocytes; listed as B1 (11)): 0.55 ± 0.04 µM; ED50, Erythrocytes (hemolytic activity) (human erythrocytes; listed as cladoloside B1 (11)): 0.55 µM; Selectivity Index (SI), T-47D [3]: >1.54; Selectivity Index (SI), MDA-MB-231 [4]: >1.98
9 | C=C(C)CC[C@@H](OC(C)=O)[C@]1(C)OC(=O)C23CC=C4[C@@H](CC[C@H]5C(C)(C)[C@@H](O[C@@H]6OC[C@@H](O[C@@H]7O[C@H](CO)[C@@H](O)[C@H](O)[C@H]7O)[C@H](O)[C@H]6O[C@@H]6O[C@H](C)[C@@H](O[C@@H]7OC[C@@H](O)[C@H](O[C@@H]8O[C@H](CO)[C@@H](O)[C@H](OC)[C@H]8O)[C@H]7O)[C@H](O)[C@H]6O)CC[C@]45C)[C@]2(C)C[C@H](OC(C)=O)[C@@H]31 (stereo partly shown) [Cladoloside B2 (12), cladoloside B2] | – | high activity | 12.2 ± 1.2 | 14.5 ± 0.48 | 12.5 ± 0.96 | 3.92 ± 0.35 | ED50, Erythrocytes (hemolytic activity) (human erythrocytes; listed as B2 (12)): 0.31 ± 0.02 µM; ED50, Erythrocytes (hemolytic activity) (human erythrocytes; listed as cladoloside B2 (12)): 0.31 µM; Selectivity Index (SI), MCF-7 [2]: 0.84; Selectivity Index (SI), T-47D [3]: 0.98; Selectivity Index (SI), MDA-MB-231 [4]: 3.12
10 | CO[C@@H]1[C@@H](O)[C@H](O[C@@H]2[C@@H](O)[C@H](O[C@@H]3CO[C@@H](O[C@H]4CC[C@]5(C)C6=CCC78C(=O)O[C@@](C)([C@@H](CCC(C)C)OC(C)=O)[C@H]7[C@@H](OC(C)=O)C[C@@]8(C)[C@@H]6CC[C@H]5C4(C)C)[C@H](O[C@@H]4O[C@H](C)[C@@H](O[C@@H]5OC[C@@H](O)[C@H](O[C@@H]6O[C@H](CO)[C@@H](O)[C@H](OC)[C@H]6O)[C@H]5O)[C@H](O)[C@H]4O)[C@H]3O)O[C@H](CO)[C@H]2O)O[C@H](CO)[C@H]1O (stereo partly shown) [Cladoloside C1 (14), cladoloside C1] | – | – | > 20 | > 20 | > 20 | 15.3 ± 0.71 | ED50, Erythrocytes (hemolytic activity) (human erythrocytes; listed as C1 (14)): 0.15 ± 0.02 µM; ED50, Erythrocytes (hemolytic activity) (human erythrocytes; listed as cladoloside C1 (14)): 0.15 µM
11 | C=C(C)CC[C@@H](OC(C)=O)[C@]1(C)OC(=O)C23CC=C4[C@@H](CC[C@H]5C(C)(C)[C@@H](O[C@@H]6OC[C@@H](O[C@@H]7OC[C@@H](O)[C@H](O[C@@H]8O[C@H](CO)[C@@H](O)[C@H](O)[C@H]8O)[C@H]7O)[C@H](O)[C@H]6O[C@@H]6O[C@H](C)[C@@H](O[C@@H]7OC[C@@H](O)[C@H](O[C@@H]8O[C@H](CO)[C@@H](O)[C@H](OC)[C@H]8O)[C@H]7O)[C@H](O)[C@H]6O)CC[C@]45C)[C@]2(C)C[C@H](OC(C)=O)[C@@H]31 (stereo partly shown) [Cladoloside D (18), Cladoloside D] | 0.29 | high activity | > 20 | 15.3 ± 0.94 | 14.9 ± 0.85 | 2.98 ± 0.24 | ED50, Erythrocytes (hemolytic activity) (human erythrocytes; listed as D (18)): 0.29 ± 0.03 µM; Toxicity to normal mammary cells MCF-10A, in words ([1]; MCF-10A): non-toxic; Selectivity Index (SI), MCF-7 [2]: >1.31; Selectivity Index (SI), T-47D [3]: >1.34; Selectivity Index (SI), MDA-MB-231 [4]: >6.7
